What was measured:
Experiment in all cases: relative viability (nuclei count vs DMSO), 5 days (fraction); higher = more cells survive
A-427 = test system: A-427
Summary of the method: (§1)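 Values are medians from duplicate plates. Each reflects relative viability, defined as the nuclei count of treated wells over that of vehicle wells. Lung cancer cell lines in 1536-well plates were pin-tool dosed one day after seeding with one drug alone or with a fixed anchor-drug dose plus five library-drug doses (not always all listed) in √10 steps, then fixed, stained and imaged at 4× after 5 days.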

COR-L 105 = test system: COR-L 105
Summary of the method: as §1

ChaGo-K-1 = test system: ChaGo-K-1
Summary of the method: as §1

EKVX = test system: EKVX
Summary of the method: as §1

EMC-BAC-2 = test system: EMC-BAC-2
Summary of the method: as §1

EPLC-272H = test system: EPLC-272H
Summary of the method: as §1

HARA = test system: HARA
Summary of the method: as §1

HCC-44 = test system: HCC-44
Summary of the method: as §1

LK-2 = test system: LK-2
Summary of the method: as §1

LU99A = test system: LU99A
Summary of the method: as §1

NCI-H1650 = test system: NCI-H1650
Summary of the method: as §1

NCI-H1734 = test system: NCI-H1734
Summary of the method: as §1

NCI-H1755 = test system: NCI-H1755
Summary of the method: as §1

NCI-H1792 = test system: NCI-H1792
Summary of the method: as §1

NCI-H1993 = test system: NCI-H1993
Summary of the method: as §1

NCI-H2405 = test system: NCI-H2405
Summary of the method: as §1

NCI-H460 = test system: NCI-H460
Summary of the method: as §1

NCI-H596 = test system: NCI-H596
Summary of the method: as §1

NCI-H647 = test system: NCI-H647
Summary of the method: as §1

RERF-LC-KJ = test system: RERF-LC-KJ
Summary of the method: as §1

Which relative viability (A-427; first compound 0.002 µM) does the source give for `CCNC(=O)c1noc(-c2cc(C(C)C)c(O)cc2O)c1-c1ccc(CN2CCOCC2)cc1` [Luminespib] + CC1(C)CCC(c2ccc(Cl)cc2)=C(CN2CCN(c3ccc(C(=O)NS(=O)(=O)c4ccc(N[C@H](CCN5CCOCC5)CSc5ccccc5)c(S(=O)(=O)C(F)(F)F)c4)cc3)CC2)C1 [Navitoclax] (partner 0.5 µM) here?
The relative viability was 1.01.

And the relative viability (A-427; first compound 0.006325 µM)?
The relative viability was 0.913.

What about the relative viability (A-427; first compound 0.02 µM) of the same compound?
Its relative viability is 0.497.

And the relative viability (A-427; first compound 0.06325 µM)?
Its relative viability is 0.99.

And the relative viability (A-427; first compound 0.2 µM)?
The relative viability was 1.03.

What about the relative viability (COR-L 105; first compound 0.002 µM) of the same compound?
The relative viability was 0.729.

And the relative viability (COR-L 105; first compound 0.006325 µM)?
The relative viability was 0.696.

What about the relative viability (COR-L 105; first compound 0.02 µM) of the same compound?
Its relative viability is 1.12.

What about the relative viability (COR-L 105; first compound 0.06325 µM) of the same compound?
The relative viability was 0.278.

What about the relative viability (COR-L 105; first compound 0.2 µM) of the same compound?
Its relative viability is 0.234.

And the relative viability (ChaGo-K-1; first compound 0.002 µM)?
Its relative viability is 1.1.

And the relative viability (ChaGo-K-1; first compound 0.02 µM)?
Its relative viability is 0.932.

And the relative viability (ChaGo-K-1; first compound 0.06325 µM)?
Its relative viability is 0.41.

And the relative viability (ChaGo-K-1; first compound 0.2 µM)?
Its relative viability is 0.311.

What about the relative viability (EKVX; first compound 0.002 µM) of the same compound?
The relative viability was 0.922.

And the relative viability (EKVX; first compound 0.006325 µM)?
Its relative viability is 0.801.

What about the relative viability (EKVX; first compound 0.02 µM) of the same compound?
Its relative viability is 0.677.

What about the relative viability (EKVX; first compound 0.06325 µM) of the same compound?
The relative viability was 0.518.

And the relative viability (EKVX; first compound 0.2 µM)?
The relative viability was 0.0817.

What about the relative viability (EMC-BAC-2; first compound 0.002 µM) of the same compound?
Its relative viability is 1.15.

And the relative viability (EMC-BAC-2; first compound 0.006325 µM)?
The relative viability was 1.09.

And the relative viability (EMC-BAC-2; first compound 0.02 µM)?
The relative viability was 1.12.

And the relative viability (EMC-BAC-2; first compound 0.06325 µM)?
Its relative viability is 1.16.

What about the relative viability (EMC-BAC-2; first compound 0.2 µM) of the same compound?
Its relative viability is 1.13.

What about the relative viability (EPLC-272H; first compound 0.006325 µM) of the same compound?
Its relative viability is 0.831.

And the relative viability (EPLC-272H; first compound 0.02 µM)?
Its relative viability is 0.782.

What about the relative viability (EPLC-272H; first compound 0.06325 µM) of the same compound?
Its relative viability is 1.11.

And the relative viability (EPLC-272H; first compound 0.2 µM)?
The relative viability was 1.28.

And the relative viability (HARA; first compound 0.002 µM)?
The relative viability was 1.21.

And the relative viability (HARA; first compound 0.006325 µM)?
Its relative viability is 1.14.

And the relative viability (HARA; first compound 0.02 µM)?
Its relative viability is 1.15.

And the relative viability (HARA; first compound 0.06325 µM)?
The relative viability was 1.08.

What about the relative viability (HARA; first compound 0.2 µM) of the same compound?
The relative viability was 0.553.

And the relative viability (HCC-44; first compound 0.002 µM)?
Its relative viability is 0.943.

What about the relative viability (HCC-44; first compound 0.006325 µM) of the same compound?
Its relative viability is 0.99.

What about the relative viability (HCC-44; first compound 0.02 µM) of the same compound?
Its relative viability is 1.18.

And the relative viability (HCC-44; first compound 0.06325 µM)?
The relative viability was 0.957.

And the relative viability (HCC-44; first compound 0.2 µM)?
The relative viability was 0.129.

And the relative viability (LK-2; first compound 0.002 µM)?
The relative viability was 0.826.

What about the relative viability (LK-2; first compound 0.006325 µM) of the same compound?
The relative viability was 0.936.

And the relative viability (LK-2; first compound 0.02 µM)?
The relative viability was 0.571.

What about the relative viability (LK-2; first compound 0.06325 µM) of the same compound?
Its relative viability is 0.163.

And the relative viability (LK-2; first compound 0.2 µM)?
The relative viability was 0.159.

What about the relative viability (LU99A; first compound 0.002 µM) of the same compound?
Its relative viability is 0.878.

What about the relative viability (LU99A; first compound 0.006325 µM) of the same compound?
The relative viability was 0.815.

What about the relative viability (LU99A; first compound 0.02 µM) of the same compound?
Its relative viability is 0.496.

What about the relative viability (LU99A; first compound 0.06325 µM) of the same compound?
The relative viability was 0.253.

What about the relative viability (LU99A; first compound 0.2 µM) of the same compound?
Its relative viability is 0.119.

What about the relative viability (NCI-H1650; first compound 0.002 µM) of the same compound?
The relative viability was 1.31.

What about the relative viability (NCI-H1650; first compound 0.006325 µM) of the same compound?
Its relative viability is 1.11.

And the relative viability (NCI-H1650; first compound 0.02 µM)?
Its relative viability is 0.318.

What about the relative viability (NCI-H1650; first compound 0.06325 µM) of the same compound?
Its relative viability is 0.159.

And the relative viability (NCI-H1650; first compound 0.2 µM)?
Its relative viability is 0.144.

What about the relative viability (NCI-H1734; first compound 0.002 µM) of the same compound?
The relative viability was 0.878.

And the relative viability (NCI-H1734; first compound 0.006325 µM)?
The relative viability was 0.698.

What about the relative viability (NCI-H1734; first compound 0.02 µM) of the same compound?
The relative viability was 0.777.

What about the relative viability (NCI-H1734; first compound 0.06325 µM) of the same compound?
Its relative viability is 0.172.

And the relative viability (NCI-H1734; first compound 0.2 µM)?
The relative viability was 0.122.

And the relative viability (NCI-H1755; first compound 0.002 µM)?
Its relative viability is 0.981.

What about the relative viability (NCI-H1755; first compound 0.006325 µM) of the same compound?
The relative viability was 0.959.

What about the relative viability (NCI-H1755; first compound 0.02 µM) of the same compound?
The relative viability was 0.973.

What about the relative viability (NCI-H1755; first compound 0.06325 µM) of the same compound?
Its relative viability is 0.971.

What about the relative viability (NCI-H1755; first compound 0.2 µM) of the same compound?
Its relative viability is 0.933.

And the relative viability (NCI-H1792; first compound 0.002 µM)?
Its relative viability is 0.535.

What about the relative viability (NCI-H1792; first compound 0.006325 µM) of the same compound?
The relative viability was 0.497.

What about the relative viability (NCI-H1792; first compound 0.02 µM) of the same compound?
The relative viability was 0.539.

What about the relative viability (NCI-H1792; first compound 0.06325 µM) of the same compound?
The relative viability was 0.32.

And the relative viability (NCI-H1792; first compound 0.2 µM)?
The relative viability was 0.216.

And the relative viability (NCI-H1993; first compound 0.002 µM)?
Its relative viability is 0.937.

And the relative viability (NCI-H1993; first compound 0.006325 µM)?
The relative viability was 1.02.

What about the relative viability (NCI-H1993; first compound 0.02 µM) of the same compound?
Its relative viability is 0.762.

And the relative viability (NCI-H1993; first compound 0.06325 µM)?
The relative viability was 0.644.

And the relative viability (NCI-H1993; first compound 0.2 µM)?
The relative viability was 0.466.

What about the relative viability (NCI-H2405; first compound 0.002 µM) of the same compound?
The relative viability was 0.925.

And the relative viability (NCI-H2405; first compound 0.006325 µM)?
The relative viability was 0.583.

And the relative viability (NCI-H2405; first compound 0.02 µM)?
The relative viability was 0.704.

What about the relative viability (NCI-H2405; first compound 0.06325 µM) of the same compound?
Its relative viability is 0.188.

What about the relative viability (NCI-H2405; first compound 0.2 µM) of the same compound?
The relative viability was 0.143.

And the relative viability (NCI-H460; first compound 0.002 µM)?
Its relative viability is 1.23.

What about the relative viability (NCI-H460; first compound 0.006325 µM) of the same compound?
The relative viability was 1.01.

And the relative viability (NCI-H460; first compound 0.02 µM)?
Its relative viability is 0.0537.

And the relative viability (NCI-H460; first compound 0.06325 µM)?
Its relative viability is 0.0176.

And the relative viability (NCI-H460; first compound 0.2 µM)?
The relative viability was 0.0134.

And the relative viability (NCI-H596; first compound 0.002 µM)?
Its relative viability is 0.954.

And the relative viability (NCI-H596; first compound 0.006325 µM)?
Its relative viability is 0.886.

And the relative viability (NCI-H596; first compound 0.06325 µM)?
Its relative viability is 0.936.

And the relative viability (NCI-H596; first compound 0.2 µM)?
The relative viability was 0.996.

What about the relative viability (NCI-H647; first compound 0.002 µM) of the same compound?
Its relative viability is 1.23.

What about the relative viability (NCI-H647; first compound 0.006325 µM) of the same compound?
Its relative viability is 1.06.

And the relative viability (NCI-H647; first compound 0.02 µM)?
The relative viability was 1.18.

What about the relative viability (NCI-H647; first compound 0.06325 µM) of the same compound?
The relative viability was 0.0943.

What about the relative viability (NCI-H647; first compound 0.2 µM) of the same compound?
The relative viability was 0.0973.

And the relative viability (RERF-LC-KJ; first compound 0.002 µM)?
The relative viability was 0.987.

What about the relative viability (RERF-LC-KJ; first compound 0.006325 µM) of the same compound?
The relative viability was 1.11.

And the relative viability (RERF-LC-KJ; first compound 0.02 µM)?
Its relative viability is 1.07.

What about the relative viability (RERF-LC-KJ; first compound 0.06325 µM) of the same compound?
The relative viability was 0.221.

And the relative viability (RERF-LC-KJ; first compound 0.2 µM)?
Its relative viability is 0.22.

From the supplement of paper PMC10307832
